# Reference: paper PMC12764776, “Structural basis of specific lysine transport by Pseudomonas aeruginosa permease LysP” (Nature Communications, 2025)
# B1: nanobody Nb5755 (VHH)
# VHH: QVQLQESGGGLVQGGSLRLSCAASGRTFSIYGMAWVRQASGKEREFVAAMPRGGGTTNYADSVKGRFSISRDNAKNTVDLQMNSLKPEDTAVYYCVADRGFTLRLGIQHDYWGQGTQVTVSS
# notes: raised in a llama immunised with LysP and selected by phage display; Library cloned into the phage display vector pMESy4, which bears the C-terminal His6 and EPEA tags; also called Nanobody 5755; CA5755; source: E. coli BL21 (DE3), periplasm, purified (Ni-NTA, SEC)
# What was measured:
# [1] = biological target: T1, lysine-specific permease (LysP) (Pseudomonas aeruginosa, UniProt Q9HVG3); assay: microscale thermophoresis; type: binding; set-up: purified GFP-free LysP in LMNG
# [2] = biological target: T1, lysine-specific permease (LysP); assay: microscale thermophoresis; inhibition of [3H]L-lysine transport in LysP proteoliposomes; type: binding; set-up: purified GFP-free LysP in LMNG
# [3] = biological target: T1, lysine-specific permease (LysP); assay: cryo-EM structure ([…] Å) and microscale thermophoresis; [3H]L-lysine transport in proteoliposomes (cold L-lysine IC50 […]); type: binding; set-up: purified GFP-free LysP in LMNG (MST); LysP-Nb5755 complex (cryo-EM); with nanobody Nb5755 (cryo-EM structure only)
# [4] = biological target: T2, LysP-GFP fusion (P. aeruginosa LysP with GFP-His8) (P. aeruginosa strain PAO1, UniProt Q9HVG3); assay: GFP thermal shift (GFP-TS) assay; membranes with LysP-GFP solubilised in 150 mM NaCl, 20 mM Tris-HCl pH 7.5, 1% DDM with or without 1 uM Nb5755, 1 h at 4 °C; 1% beta-OG added; heated 10 min at 4-100 °C; GFP fluorescence of the supernatant; conditions: one partner purified
# T2 construct: lysine-specific permease LysP, P. aeruginosa strain PAO1, UniProt Q9HVG3; the same construct as m1 in pWaldo-GFPd, with the GFP-His8 fusion not cut off; The GFP fluorescence is the read-out of the GFP-TS assay; source: E. coli (DE3) C43, in membranes solubilised with 1% DDM, not purified
molecule,measurement,setting,value
NCCCC[C@@H](N)C(=O)O [D-lysine],Kd,[1],151 µM
"NCCSC[C@H](N)C(=O)O [L-4-thialysine, S-(2-aminoethyl)-L-cysteine]",Kd,[2],31 µM
NCCCC[C@H](N)C(=O)O [L-lysine],Kd,[3],14 µM
B1,increase in melting temperature,[4],20 °C
